Columns and labels:
[1] = tested on: mouse cortical neuron-enriched cultures; assay: RNA-seq transcriptional screen with hierarchical clustering and cluster membership; type: cell-based; conditions: 24 h at non-toxic concentration; hierarchical clustering of 5,121 variably expressed genes
Experimental: Cultures were treated with the non-cytotoxic dose of each chemical, by exchanging half of the original medium with chemicals at 2 × concentration in prewarmed feeding medium, on DIV 7 for 24 h in 12-well plates at a density of 5 × 10^5 cells per well. RNA was isolated using RNeasy plus mini kit (Cat. #74134, Qiagen). RNA yield and quality were determined using a Nanodrop 1000 Spectrophotometer (Thermo Scientific). Samples were further assessed for quality using either an Agilent Bioanalyzer 2100 or TapeStation 2200 to obtain a RIN. RIN values exceeding 7 were used for sequencing. RNA samples were used to generate and barcode complementary DNA libraries using the TruSeq RNA Library Preparation Kit at the UNC High Throughput Sequencing Facility. Pools of 24 multiplexed samples were sequenced per lane on an Illumina HiSeq 2500 using 50-bp paired-end reads.
RNA-seq reads were filtered using TagDust and aligned to the reference mouse genome (mm9) with TopHat using default parameters. Reads aligning to ribosomal RNA genes were removed. Transcript abundance was estimated by computing Reads per kilobase per million mapped reads (RPKM) using RefSeq gene models aggregated by gene symbol. For differential expression analyses, raw counts over RefSeq exons were used, and then were compared across samples using DESeq[62].
RPKMs for all RefSeq genes and all samples were filtered such that a given gene had >90% of samples with RPKM >0 and gene length exceeded 500 bp. RPKMs were then log10-transformed, quantile-normalized, median-centred, and the effects due to culture or sequencing batch were removed using a mixed model analysis of variance. This batch correction step was performed on individual experiments rather than chemical–vehicle ratios to reduce the effects due to variations in culture composition as well as batch-to-batch variations at the level of sequencing. Genes were then median-centred again, and filtered such that their s.d. exceeded 0.1. Chemical replicates were then combined using the median. Classes of chemicals were then discovered in two ways. First, we performed hierarchical clustering using average linkage and Pearson correlation distance measures. The boundaries of the discovered classes from clustering were set by computing pairwise Spearman correlations for all samples. A given cluster had to have at least three members with the minimum pairwise Spearman correlation coefficient exceeding 0.2, though cluster members often exceeded a correlation of 0.6 (Supplementary Fig. 5c,d). Seven chemical clusters were discovered, however one was removed due to failing to have a positive silhouette width, a metric of cluster robustness. These definitions enabled the three positive control topoisomerase inhibitors to form a cohesive group of chemicals with known structural and functional similarity (cluster 5). None of the culture or sequencing batches contributed to the formation of any one of the final six clusters (Supplementary Fig. 4).

[2] = tested on: cortical neurons; assay: Soma morphology (proportion of cells with altered soma morphology) in live-cell imaging; type: cell-based, mouse; conditions: 2 h treatment, vincristine 500 µM in Supplementary Fig. 10c

## CSC1=N[C@@](C)(c2ccccc2)C(=O)N1Nc1ccccc1 [fenamidone]
[1]
  Chemical cluster assigned by gene expression: cluster 2
[2]
  Soma swelling / aberrant cell morphology: dose dependent
[2]; listed as Fenamidone
  Soma swelling / aberrant cell morphology: swelling of neuronal soma

Source: paper PMC4821887, “Identification of chemicals that mimic transcriptional changes associated with autism, brain aging and neurodegeneration” (Nature Communications, 2016)
